# Source: patent US20230256094A1, “CANCER RADIOSENSITIZATION BY IN SITU FORMATION OF GOLD NANOPARTICLES AND/OR GOLD NANOCLUSTERS” (BOARD OF REGENTS, THE UNIVERSITY OF TEXAS SYSTEM, priority 2020, published 2023)
# “Also recorded” adds a separate entry of the source.
# Columns and labels:
# [1] = tested on: PANC1 pancreatic cancer cells; experiment: Longitudinal live cell confocal fluorescence imaging of the intracellular distribution of GNCs; type: cell-based, human; details: 0.20 mM, 20 hr time period
# Excerpt: 2.1. Intracellular distribution and time dependence of gold nanocluster (GNC) in situ formation. […] Then, we used longitudinal live cell confocal fluorescence imaging to observe time dependence of the intracellular distribution of GNCs formed through biomineralization of Au^3+.
# PANC1 pancreatic cancer [2] = experiment: MTT assay of cell viability after x-ray irradiation; type: cell-based, human; details: 24 hours after irradiation, all radiation dosages greater than 0 Gy, 0.20 mM
# Protocol: FIG. 26 presents evidence of radiosensitization, quantifying the cell viability resulting from X-ray damage through MTT assay measured 24 and 96 hours after x-ray irradiation, resulting from 24 hour, 0.20 mM Au^3+ treatments (right bar in each dosage pair) compared against non-treated (left bar in each dosage pair) combined with either 0 Gy or 8 Gy x-ray irradiation. Treatments are in full cell media to PANC1 pancreatic cancer.
# PANC1 pancreatic cancer [3] = experiment: JC-1 assay of mitochondrial polarization after irradiation; type: cell-based, human; details: 24 hr post-irradiation, 8 Gy
# Protocol: FIG. 22 reports on a mechanistic study of radiosensitization quantifying mitochondrial depolarization through JC-1 assay measured at 0, 1, and 24 hours, resulting from 24 hour, 0.20 mM Au^3+ treatments (lower three) compared against non-treated (upper three) combined with either 0 Gy or 8 Gy x-ray irradiation. Treatments are in full cell media to PANC1 pancreatic cancer.
# The JC-1 assay measures the charge potential of the mitochondria of cells through the fluorometric ratio of the JC-1 dye (ThermoFisher Scientific, Waltham, Mass.). JC-1 is a cationic carbocyanine dye that accumulates in mitochondria. The dye exists as a monomer at low concentrations and yields green fluorescence, similar to fluorescein. […] These characteristics make JC-1 a sensitive marker for mitochondrial membrane potential. In other words, mitochondrial depolarization is indicated by a decrease in the red/green fluorescence intensity ratio. Mitochondrial depolarization is an indicator of reduced cell viability.
# (§1) Further, we characterized the mechanisms of radiosensitization through (i) quantification of double stranded DNA breaks via y-H2AX Foci (FIG. 21), (ii) mitochondrial polarization via JC-1 assay (FIG. 22), (iii) NADP total (FIG. 23) and NADP:NADPH ratio (FIG. 24) via NADP(H) assay, and (iv) peroxidation production via TBARS assay (FIG. 25).
# [4] = tested on: 8505C thyroid cancer and Nthy-Ori-3-1 normal thyroid cells; experiment: MTT assay of cell viability, thyroid cells; type: cell-based; details: 24 hour treatment, all concentrations
# [5] = tested on: pancreatic non-cancerous cells (MS1); experiment: Clonogenic assay after X-ray irradiation; type: cell-based; details: 0.1 mM, 24 hours, X-rays 0 to 8 Gy
# Protocol: (§2) Radiosensitization due to intracellular GNC formation (i.e., delivery of Au^3+) was compared between cancerous and non-cancerous cells using a standard clonal assay. For radiosensitization, cells were incubated with 0.1 mM of buffered chloroauric acid in cell culture media for 24 hours. Then, the cells were lifted and plated in 30 mm culture dishes at optimized cell densities for observation of colony formation following irradiation with X-rays at dosages ranging from 0 to 8 Gy (XRAD SmART). […] The radiosensitization results correlated well with the fluorescence images showing greater production of GNCs by cancerous cells (FIG. 6A-6B). For LTPA pancreatic cancer cells the surviving fraction values decreased by a factor of 2.3x and 3.5x for radiation of 4 Gy and 6 Gy, respectively, in cells treated with gold atoms compared to untreated control (FIG. 6B). This relative decrease in surviving fraction is similar or better than previously reported values observed in cells treated with pre-synthetized GNPs. We believe that the observed improvement in radiation efficiency in killing cancer cells might be associated with a strong nuclear localization of in situ synthetized GNCs.
# [6] = tested on: LTPA pancreatic cancer cells; experiment: Clonogenic assay after X-ray irradiation; type: cell-based; details: 0.1 mM, 24 hours; for radiosensitization effect as compared to untreated control: cancer cells, X-rays 0 to 8 Gy
# Protocol: as §2
# PANC1 pancreatic cancer [7] = experiment: TBARS assay of peroxidation product formation; type: cell-based, human; details: 24 hr post irradiation
# Protocol: FIG. 25 reports on a mechanistic study of radiosensitization quantifying the ratio of peroxidation product formation resulting from X-ray damage through TBARS assay, resulting from 24 hour, 0.20 mM Au^3+ treatments (right) compared against non-treated (left) combined with either 0 Gy or 8 Gy x-ray irradiation. Treatments are in full cell media to PANC1 pancreatic cancer.
# as §1
# [8] = tested on: cancerous (Mia-PaCa-2 and PANC1) vs normal (HPDE) pancreatic cells; experiment: Fluorescent confocal microscopy of GNC biosynthesis, cancerous vs normal cells; type: cell-based; details: 1.00 mM, 24 hr (FIG. 8B)
# Excerpt: (§3) Hoechst nuclear stain is the only imaging source in the untreated column and the primary imaging source in the albumin-GNC column and the non-cancer Au^3+ panel. Cells are live during imaging. Scale bars are 10 μm.
# (§4) FIG. 8B quantifies GNC channel pixel intensity of the samples in each of the rows of FIG. 8A.
# (§5) 2.2. Comparisons of efficiency of the GNC in situ synthesis by cancer and normal cells. We compared GNC biosynthesis between normal (HPDE) and cancerous (Mia-PaCa-2 and PANC1) pancreatic cells using fluorescent confocal microscopy (FIG. 8A). In addition, we compared the efficiency of the intracellular synthesis with extracellular uptake of prefabricated albumin coated GNCs (FIG. 8A). […] Further, there was 12.20- and 7.69-times greater fluorescence due to in situ synthesis relative to cellular uptake of prefabricated GNCs in PANC1 and Mia-PaCa-2 cells, respectively (FIG. 8B).
# [9] = tested on: pancreatic cancer cells (MIAPACA2); experiment: Confocal fluorescence imaging of in situ GNC synthesis; type: cell-based, human; details: MIAPACA2; 1 mM, 24 hours; 561 nm excitation, 610 nm emission
# Protocol: FIG. 4 presents fluorescence confocal images of non-cancerous (HPDE) and cancerous (MIAPaCa2) pancreatic cells treated with either 1 mM of Au^3+ gold ions or premade albumin-GNCs at 1 mM Au^0 for 24 hours. (From left to right) Cells: untreated; treated with albumin-GNCs; treated with Au^3+ gold ions. […] The strong red fluorescence in cancer cells indicated intracellular synthesis of GNCs from gold ions. Scale bars are 25 μm.
# We compared in situ synthesis of GNCs by pancreatic cancer cells (MIAPACA2) and pancreatic noncancerous cells (HPDE) (FIG. 4). Confocal fluorescence images were obtained using a Leica TCS SP8 confocal microscope with 561 nm excitation and 610 nm emission optimized for detection of GNCs.
# [10] = tested on: PANC1 xenografts in nu/nu mice; experiment: Tumor volume after 10 Gy X-ray irradiation in xenografts; type: in vivo; details: 48 hours after treatment with 1.00 mM
# PANC1 cells = experiment: Fluorescence of in situ synthesis vs uptake of prefabricated GNCs; type: cell-based, human; details: 1.00 mM, 24 hr (FIG. 8B)
# Excerpt: as §3, §4, §5
# Mia-PaCa-2 cells = experiment: as above; type: cell-based, human; details: 1.00 mM, 24 hr (FIG. 8B)
# Excerpt: as §3, §4, §5
# [11] = listed as buffered chloroauric acid
compound,measurement,setting,value
"[Au+3].[Cl-].[Cl-].[Cl-].[Cl-].[H+] [Au^3+, chloroauric acid]",subcellular region of greatest GNC formation,[1],nucleolus had the highest rate of GNC formation; also recorded: greatest in the nucleolus
same,cell viability vs untreated controls (MTT),PANC1 pancreatic cancer [2],significantly lower cell viability
same,recovery of mitochondrial depolarization,PANC1 pancreatic cancer [3],no recovery in the mitochondrial depolarization
same,viability of cancer cells compared with normal cells (MTT),[4],significantly lower viability of cancer cells than normal cells
same,radiosensitization in non-cancerous cells,[5],no radiosensitization
same,radiosensitization in non-cancerous cells,[5]; [11],no significant radiosensitization
same,factor of decrease of surviving fraction compared to untreated control,[6]; 4 Gy,2.3 x
same,factor of decrease of surviving fraction compared to untreated control,[6]; 6 Gy,3.5 x
same,radiosensitization effect as compared to untreated control,[6],significant radiosensitization effect
same,radiosensitization effect as compared to untreated control,[6]; [11],significantly greater radiosensitization effect
same,increase in peroxidation product formation,PANC1 pancreatic cancer [7],~2 x
same,greater fluorescence due to GNC biomineralization in cancerous cells than in non-cancerous HPDE,[8],~2 fold
same,GNC fluorescence / GNC formation,[9],ubiquitous
same,radiosensitization effect by tumor volume measurements,[10],evidence of radiosensitization effect
same,greater fluorescence due to in situ synthesis relative to cellular uptake of prefabricated GNCs,PANC1 cells,12.20 times
same,greater fluorescence due to in situ synthesis relative to cellular uptake of prefabricated GNCs,Mia-PaCa-2 cells,7.69 times
